Laboratory results reported in patent US9079895B2, “Morpholino compounds, uses and methods” (University of Dundee, priority 2012, dated 2015).
Values joined by “and” are separate entries in the source; they are usually repeats but may differ in a detail not shown here. Equal entries are not always repeated.

Legend:
5HT1a receptor = 5HT1a receptor (Homo sapiens (Human), UniProt P08908); assay: Secondary radioligand binding assay, 5HT1a; details: average of at least two experiments
5HT1d receptor = 5HT1d receptor (Homo sapiens (Human), UniProt P28221); assay: Secondary radioligand binding assay, 5HT1d; set-up: key to Ki 5HT1d: “—” indicates that a binding interaction was not detected; details: average of at least two experiments;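 also: competition binding against a radioligand on membranes from transfected cell lines, 1.5 h at room temperature, filter-retained radioactivity counted by liquid scintillation, total binding plotted versus log competitor concentration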
Experimental: (§8) Assay Buffer: Standard Binding Buffer (50 mM Tris-HCl, 10 mM MgCl2, 1 mM EDTA, pH 7.4)
(§9) Membrane Fraction Source: Transiently or stably transfected cell lines (e.g., HEK293, COS, CHO, NIH3T3)

5HT2a receptor = 5HT2a receptor (Homo sapiens (Human), UniProt P28223); assay: Secondary radioligand binding assay, 5HT2a; details: average of at least two experiments
Experimental: as §8, §9

5HT7 receptor = 5HT7 receptor (Homo sapiens (Human), UniProt P34969); assay: Secondary radioligand binding assay, 5HT7; set-up: key to Ki 5HT7: “—” indicates that a binding interaction was not detected; details: average of at least two experiments;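 also: competition of test compound with radioligand for binding to membranes from transfected cell lines, 1.5 h incubation at room temperature, filter-bound radioactivity read by liquid scintillation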
Experimental: as §8, §9

[1] = target: Alpha1D adrenergic receptor (Homo sapiens (Human), UniProt P25100); assay: Secondary radioligand binding assay, Alpha1D; details: average of at least two experiments
Experimental: (§1) 1. Secondary Radioligand Binding Assays
(§2) The detailed experimental protocols for the radioligand and functional receptor assays are available on the NIMH PDSP website at http://pdsp.med.unc.edu/UNC-CH %20Protocol %20Book.pdf.
(§3) Raw data (dpm) representing total radioligand binding (i.e. specific+non-specific binding) are plotted as a function of the logarithm of the molar concentration of the competitor (i.e. test or reference compound).
The method is carried out in the manner described for the serotonin receptor assay above, except where described below. Eleven dilutions (5× assay concentration) of the test and reference (see Table 20) compounds are prepared in the appropriate buffer by serial dilution, as previously described. Radioligand is diluted to five times the assay concentration (see Table 21) in the appropriate buffer.
The 250 μl reactions are incubated at room temperature and shielded from light (to prevent photolysis of light-sensitive ligands) for 1 hour (for α1 receptors, 40 min for α2 receptors, and 1.5 hours for β receptors), then harvested by rapid filtration onto Whatman GF/B glass fiber filters pre-soaked with 0.3% polyethyleneimine using a 96-well Brandel harverster. Four rapid 500-μl washes are performed with chilled distilled water (for α1 and β receptors) or 0.1% polyethyleneimine (for α2 receptors) to reduce non-specific binding. Filters are placed in 6 ml scintillation tubes and allowed to dry overnight and the samples are treated to obtain data as described above.

dopamine D1 receptor = dopamine D1 receptor (Homo sapiens (Human), UniProt P21728); assay: Secondary radioligand binding assay, D1; set-up: key to Ki D1: “—” indicates that a binding interaction was not detected; details: average of at least two experiments
Experimental: as §1, §2
(§4) Radioligand is diluted to five times the assay concentration (see Table 18) in Standard Binding Buffer. Typically, the assay concentration of radioligand is a value between one half the KD and the KD of a particular radioligand at its target. 50 μl aliquots of radioligand are dispensed into the wells of a 96-well plate containing 100 μl of Standard Binding Buffer. Then, duplicate 50 μl aliquots of the test and reference compound dilutions are added.
(§5) The 250 μl reactions are incubated at room temperature and shielded from light (to prevent photolysis of light-sensitive ligands) for 1.5 hours, then harvested by rapid filtration onto Whatman GF/B glass fiber filters pre-soaked with 0.3% polyethyleneimine using a 96-well Brandel harverster. Four rapid 500 μl washes are performed with chilled Standard Binding Buffer to reduce non-specific binding. Filters are placed in 6 ml scintillation tubes and allowed to dry overnight. The next day, 4 ml of EcoScint scintillation cocktail (National Diagnostics) are added to each tube. The tubes are capped, labeled, and counted by liquid scintillation counting. […] The filter mats are dried, then scintillant is melted onto the filters and the radioactivity retained on the filters is counted in a Microbeta scintillation counter.
as §3
(§6) B. Dopamine Receptors: D1, D2, D3, D4, D5 Assay Buffers: Dopamine Binding Buffer (50 mM NaCl, 50 mM HEPES-HCl, 5 mM MgCl2, 0.5 mM EDTA, pH 7.4) Membrane Fraction Source: Transiently or stably transfected cell lines (e.g. HEK293, COS, CHO, NIH3T3)
(§7) The method is carried out in the manner described for the serotonin receptor assay above. Eleven dilutions (5× assay concentration) of the test and reference (see Table 19) compounds are prepared in Dopamine Binding Buffer by serial dilution, as previously described. Radioligand is diluted to five times the assay concentration (see Table 20) in Dopamine Binding Buffer.

dopamine D2 receptor [2] = target: T1, dopamine D2 receptor (Homo sapiens (Human), UniProt P14416); assay: Secondary radioligand binding assay, D2; set-up: key to Ki D2: “—” indicates that a binding interaction was not detected; details: average of at least two experiments
Experimental: as §1, §2, §4, §5, §3, §6, §7

dopamine D3 receptor = dopamine D3 receptor (Homo sapiens (Human), UniProt P35462); assay: Secondary radioligand binding assay, D3; set-up: key to Ki D3: “—” indicates that a binding interaction was not detected; details: average of at least two experiments
Experimental: as §1, §2, §4, §5, §3, §6, §7

dopamine D5 receptor = dopamine D5 receptor (Homo sapiens (Human), UniProt P21918); assay: Secondary radioligand binding assay, D5; set-up: key to Ki D5: “—” indicates that a binding interaction was not detected; details: average of at least two experiments
Experimental: as §1, §2, §4, §5, §3, §6, §7

dopamine D4 receptor [3] = target: T2, dopamine D4 receptor (Homo sapiens (Human), UniProt P21917); assay: Secondary radioligand binding assay, D4; details: receptor binding; average of at least two experiments; read-out: Ki D4
Experimental: as §1, §2, §4, §5, §3, §6, §7

5HT2c receptor = 5HT2c receptor (Homo sapiens (Human), UniProt P28335); assay: Secondary radioligand binding assay, 5HT2c; details: average of at least two experiments
Experimental: as §8, §9

dopamine D2 receptor [4] = target: T1, dopamine D2 receptor; assay: Functional assay against the dopamine D2 receptor; type: cell-based; details: data not shown
Excerpt: as §2

dopamine D4 receptor [5] = target: T2, dopamine D4 receptor; assay: Functional assay against the dopamine D4 receptor; type: cell-based; details: data not shown
Excerpt: as §2

hERG = hERG (Homo sapiens (Human), UniProt Q12809); assay: hERG assay (PatchXpress patch clamp); type: cell-based
Experimental: 2. hERG Assay hERG activity was assayed by the patch clamp method on a PatchXpress platform and by FluxOR T1+ assays.

T1 sequence (P14416 whole entry, species assumed): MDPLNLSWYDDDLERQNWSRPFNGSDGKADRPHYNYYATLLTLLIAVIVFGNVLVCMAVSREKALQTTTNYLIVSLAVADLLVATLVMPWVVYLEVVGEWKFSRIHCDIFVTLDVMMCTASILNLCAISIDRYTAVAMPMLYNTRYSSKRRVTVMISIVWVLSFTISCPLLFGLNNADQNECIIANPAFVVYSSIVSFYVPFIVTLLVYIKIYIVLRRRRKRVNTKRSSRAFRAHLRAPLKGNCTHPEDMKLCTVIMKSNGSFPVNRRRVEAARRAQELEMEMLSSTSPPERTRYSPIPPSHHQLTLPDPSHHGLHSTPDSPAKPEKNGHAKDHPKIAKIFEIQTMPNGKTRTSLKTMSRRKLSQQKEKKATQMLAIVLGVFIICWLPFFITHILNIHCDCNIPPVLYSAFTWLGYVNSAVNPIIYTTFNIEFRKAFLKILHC
T2 sequence (P21917 whole entry, species assumed): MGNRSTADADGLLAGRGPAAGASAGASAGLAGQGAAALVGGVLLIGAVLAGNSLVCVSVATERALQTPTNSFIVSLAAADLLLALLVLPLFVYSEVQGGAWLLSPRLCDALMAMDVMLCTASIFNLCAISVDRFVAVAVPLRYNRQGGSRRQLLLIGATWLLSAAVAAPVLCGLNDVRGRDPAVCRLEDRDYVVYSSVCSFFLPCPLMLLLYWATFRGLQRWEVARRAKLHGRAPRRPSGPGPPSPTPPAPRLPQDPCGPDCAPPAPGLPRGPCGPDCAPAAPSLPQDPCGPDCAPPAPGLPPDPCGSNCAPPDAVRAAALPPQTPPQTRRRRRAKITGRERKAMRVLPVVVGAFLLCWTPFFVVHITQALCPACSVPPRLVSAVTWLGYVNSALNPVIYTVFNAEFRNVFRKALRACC
Sequence of dopamine D3 receptor (P35462 whole entry, species assumed): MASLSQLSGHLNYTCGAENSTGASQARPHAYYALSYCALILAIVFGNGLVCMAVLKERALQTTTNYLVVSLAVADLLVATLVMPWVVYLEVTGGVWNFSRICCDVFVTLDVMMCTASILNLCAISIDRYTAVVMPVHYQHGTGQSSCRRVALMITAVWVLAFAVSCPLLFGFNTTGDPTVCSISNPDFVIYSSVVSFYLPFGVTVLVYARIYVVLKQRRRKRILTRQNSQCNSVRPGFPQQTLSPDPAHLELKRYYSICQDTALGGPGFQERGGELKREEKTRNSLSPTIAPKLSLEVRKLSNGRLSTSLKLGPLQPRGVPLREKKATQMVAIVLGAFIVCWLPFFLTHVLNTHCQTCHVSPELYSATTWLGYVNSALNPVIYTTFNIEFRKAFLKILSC
Sequence of 5HT2c receptor (P28335 33-458): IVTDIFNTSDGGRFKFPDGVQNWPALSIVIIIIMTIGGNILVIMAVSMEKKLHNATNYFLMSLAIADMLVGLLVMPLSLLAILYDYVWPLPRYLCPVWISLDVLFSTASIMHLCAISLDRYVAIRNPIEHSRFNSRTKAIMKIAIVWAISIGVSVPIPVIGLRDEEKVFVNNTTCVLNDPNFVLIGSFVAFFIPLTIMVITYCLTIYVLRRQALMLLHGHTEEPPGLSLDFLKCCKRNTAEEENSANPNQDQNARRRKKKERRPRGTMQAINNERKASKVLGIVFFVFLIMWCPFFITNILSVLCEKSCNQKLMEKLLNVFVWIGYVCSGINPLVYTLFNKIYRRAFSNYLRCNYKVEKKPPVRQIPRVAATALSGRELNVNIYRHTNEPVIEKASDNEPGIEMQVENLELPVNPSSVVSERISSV
Sequence of dopamine D1 receptor (P21728 whole entry): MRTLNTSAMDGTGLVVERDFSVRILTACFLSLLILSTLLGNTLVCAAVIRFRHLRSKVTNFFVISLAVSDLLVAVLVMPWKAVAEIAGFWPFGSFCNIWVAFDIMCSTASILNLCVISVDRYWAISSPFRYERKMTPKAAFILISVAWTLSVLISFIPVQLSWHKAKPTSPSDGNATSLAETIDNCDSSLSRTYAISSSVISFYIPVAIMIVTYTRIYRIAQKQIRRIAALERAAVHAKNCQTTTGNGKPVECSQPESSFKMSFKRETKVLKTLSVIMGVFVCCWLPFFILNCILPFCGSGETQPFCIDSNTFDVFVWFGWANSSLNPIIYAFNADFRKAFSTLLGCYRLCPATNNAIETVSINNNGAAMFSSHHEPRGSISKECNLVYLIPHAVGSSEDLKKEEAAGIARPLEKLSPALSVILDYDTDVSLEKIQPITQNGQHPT
Sequence of 5HT1d receptor (P28221 whole entry): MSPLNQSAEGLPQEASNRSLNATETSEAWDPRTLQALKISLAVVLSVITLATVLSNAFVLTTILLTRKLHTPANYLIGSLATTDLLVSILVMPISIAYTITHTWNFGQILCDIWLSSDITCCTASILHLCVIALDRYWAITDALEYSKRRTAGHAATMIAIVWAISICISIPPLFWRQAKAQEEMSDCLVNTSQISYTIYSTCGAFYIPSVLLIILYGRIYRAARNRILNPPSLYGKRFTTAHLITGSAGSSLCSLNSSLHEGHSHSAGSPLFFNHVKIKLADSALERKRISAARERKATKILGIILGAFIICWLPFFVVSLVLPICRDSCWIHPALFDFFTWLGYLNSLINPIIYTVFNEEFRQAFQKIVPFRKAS
Sequence of Alpha1D adrenergic receptor (P25100 whole entry): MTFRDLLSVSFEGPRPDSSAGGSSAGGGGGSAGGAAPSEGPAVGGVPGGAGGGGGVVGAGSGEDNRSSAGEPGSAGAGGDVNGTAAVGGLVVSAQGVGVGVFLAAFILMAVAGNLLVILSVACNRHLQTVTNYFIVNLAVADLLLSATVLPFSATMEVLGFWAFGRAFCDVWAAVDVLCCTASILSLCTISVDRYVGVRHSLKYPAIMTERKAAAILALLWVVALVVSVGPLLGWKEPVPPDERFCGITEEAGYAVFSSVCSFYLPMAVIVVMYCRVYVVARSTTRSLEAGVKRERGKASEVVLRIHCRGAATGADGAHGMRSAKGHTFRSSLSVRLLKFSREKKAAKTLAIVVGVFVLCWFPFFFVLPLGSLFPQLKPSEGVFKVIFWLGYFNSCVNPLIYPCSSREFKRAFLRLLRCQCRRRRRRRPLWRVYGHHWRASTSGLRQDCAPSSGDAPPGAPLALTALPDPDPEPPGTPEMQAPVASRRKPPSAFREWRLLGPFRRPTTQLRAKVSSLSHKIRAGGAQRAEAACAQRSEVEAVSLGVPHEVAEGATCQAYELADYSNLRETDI
Sequence of dopamine D5 receptor (P21918 whole entry): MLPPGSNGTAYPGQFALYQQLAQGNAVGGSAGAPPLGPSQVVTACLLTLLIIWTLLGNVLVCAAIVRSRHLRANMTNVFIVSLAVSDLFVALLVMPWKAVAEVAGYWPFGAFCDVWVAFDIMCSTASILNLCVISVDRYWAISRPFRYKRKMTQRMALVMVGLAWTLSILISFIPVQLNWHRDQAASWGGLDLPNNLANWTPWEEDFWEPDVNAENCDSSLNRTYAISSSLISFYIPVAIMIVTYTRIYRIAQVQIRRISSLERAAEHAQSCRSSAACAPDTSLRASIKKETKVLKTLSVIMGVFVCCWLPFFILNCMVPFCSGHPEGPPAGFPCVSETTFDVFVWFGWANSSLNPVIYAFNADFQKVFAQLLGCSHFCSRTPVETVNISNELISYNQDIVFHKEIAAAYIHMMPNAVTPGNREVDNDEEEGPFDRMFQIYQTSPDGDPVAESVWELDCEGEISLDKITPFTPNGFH
Sequence of 5HT2a receptor (P28223 whole entry): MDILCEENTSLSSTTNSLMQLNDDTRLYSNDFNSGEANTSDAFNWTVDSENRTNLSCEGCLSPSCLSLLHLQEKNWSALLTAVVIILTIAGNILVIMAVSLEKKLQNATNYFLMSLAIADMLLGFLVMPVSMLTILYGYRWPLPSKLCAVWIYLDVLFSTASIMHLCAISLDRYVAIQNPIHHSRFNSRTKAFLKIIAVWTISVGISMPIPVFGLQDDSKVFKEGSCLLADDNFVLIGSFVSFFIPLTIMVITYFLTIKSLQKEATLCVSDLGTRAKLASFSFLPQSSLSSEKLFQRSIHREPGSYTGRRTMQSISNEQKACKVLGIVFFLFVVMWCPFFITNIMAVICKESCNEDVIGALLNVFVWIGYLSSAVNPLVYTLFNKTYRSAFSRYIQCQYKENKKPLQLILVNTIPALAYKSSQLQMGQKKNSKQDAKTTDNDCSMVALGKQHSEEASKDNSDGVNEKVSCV
Sequence of 5HT7 receptor (P34969 whole entry): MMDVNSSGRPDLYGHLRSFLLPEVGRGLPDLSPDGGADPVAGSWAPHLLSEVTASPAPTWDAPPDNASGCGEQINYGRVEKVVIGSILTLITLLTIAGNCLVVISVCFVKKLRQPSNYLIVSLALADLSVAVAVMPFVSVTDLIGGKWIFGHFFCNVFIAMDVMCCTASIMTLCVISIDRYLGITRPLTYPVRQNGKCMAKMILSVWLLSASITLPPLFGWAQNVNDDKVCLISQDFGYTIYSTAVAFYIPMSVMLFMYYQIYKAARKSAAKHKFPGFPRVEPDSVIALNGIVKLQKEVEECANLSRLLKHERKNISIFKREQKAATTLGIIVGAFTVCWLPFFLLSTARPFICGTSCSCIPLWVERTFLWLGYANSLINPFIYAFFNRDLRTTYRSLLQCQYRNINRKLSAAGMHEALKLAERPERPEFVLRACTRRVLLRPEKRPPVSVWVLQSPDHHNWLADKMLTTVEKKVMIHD
Sequence of 5HT1a receptor (P08908 whole entry): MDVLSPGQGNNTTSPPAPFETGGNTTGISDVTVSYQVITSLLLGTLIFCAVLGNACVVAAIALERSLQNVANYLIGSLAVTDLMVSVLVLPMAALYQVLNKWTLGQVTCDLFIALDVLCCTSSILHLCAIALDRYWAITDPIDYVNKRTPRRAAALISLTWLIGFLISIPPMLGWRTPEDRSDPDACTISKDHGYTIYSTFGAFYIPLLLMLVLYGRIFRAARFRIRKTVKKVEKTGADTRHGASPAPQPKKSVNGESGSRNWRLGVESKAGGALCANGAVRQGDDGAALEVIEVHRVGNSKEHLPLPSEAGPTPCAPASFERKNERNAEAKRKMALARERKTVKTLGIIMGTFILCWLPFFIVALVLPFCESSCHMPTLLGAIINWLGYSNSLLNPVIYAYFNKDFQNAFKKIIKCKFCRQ

SMILES: CC1Cc2ccccc2N1C(=O)CN1CCO[C@@H](COc2cccc(Cl)c2)C1 (some centres unmarked) [Compound 65]
- Ki (5HT1a receptor): > 10000 nM
- Ki 5HT1d (5HT1d receptor): —
- Ki (5HT2a receptor): 1810 nM
- Ki 5HT7 (5HT7 receptor): —
- Ki [1]: > 10 µM
- Ki D1 (dopamine D1 receptor): —
- Ki D2 (dopamine D2 receptor [2]): —
- Ki D3 (dopamine D3 receptor): —
- Ki D5 (dopamine D5 receptor): —

SMILES: c1cncc(OC[C@H]2CN(CCN3CCc4ccccc43)CCO2)c1 [Compound 21r, (R)-4-(2-(Indolin-1-yl)ethyl)-2-((pyridin-3-yloxy)methyl)morpholine]
- Ki 5HT1d (5HT1d receptor): —
- Ki (5HT2a receptor): 3580 nM
- Ki 5HT7 (5HT7 receptor): —
- Ki (dopamine D1 receptor): > 10 µM
- Ki D2 (dopamine D2 receptor [2]): —
- Ki D3 (dopamine D3 receptor): —
- Ki (dopamine D4 receptor [3]): 2410 nM
- Ki D5 (dopamine D5 receptor): —

SMILES: Cc1ccccc1OC[C@H]1CN(CC(=O)N2c3ccccc3CC2C)CCO1 (some centres unmarked) [Compound 66]
- Ki (5HT1a receptor): 7540 nM
- Ki 5HT1d (5HT1d receptor): —
- Ki 5HT7 (5HT7 receptor): —
- Ki [1]: > 10 µM
- Ki D1 (dopamine D1 receptor): —
- Ki D2 (dopamine D2 receptor [2]): —
- Ki D3 (dopamine D3 receptor): —
- Ki D5 (dopamine D5 receptor): —

SMILES: Cc1ncccc1OC[C@@H]1CN(CC(=O)N2c3ccccc3C[C@H]2C)CCO1 [Compound 61]
- Ki (5HT1a receptor): 540 nM
- Ki 5HT1d (5HT1d receptor): —
- Ki 5HT7 (5HT7 receptor): —
- Ki [1]: > 10 µM
- Ki (dopamine D1 receptor): > 10 µM
- Ki D2 (dopamine D2 receptor [2]): —
- Ki D3 (dopamine D3 receptor): —
- Ki D5 (dopamine D5 receptor): —

SMILES: c1ccc(OC[C@H]2CN(CCN3CCc4ccccc43)CCO2)nc1 [Compound 15r, (R)-4-(2-(Indolin-1-yl)ethyl)-2-((pyridin-2-yloxy)methyl)morpholine]
- Ki (5HT1a receptor): 2880 nM
- Ki 5HT1d (5HT1d receptor): —
- Ki 5HT7 (5HT7 receptor): —
- Ki D1 (dopamine D1 receptor): —
- Ki D2 (dopamine D2 receptor [2]): —
- Ki (dopamine D3 receptor): > 10 µM
- Ki (dopamine D4 receptor [3]): 814 nM
- Ki D5 (dopamine D5 receptor): —

SMILES: c1ccc(OC[C@@H]2CN(CCN3CCc4ccccc43)CCO2)cc1 [Compound 19s, (S)-4-(2-(Indolin-1-yl)ethyl)-2-(phenoxymethyl)morpholine]
- Ki (5HT1a receptor): 0.6 nM
- Ki (5HT1d receptor): 590 nM
- Ki (5HT2a receptor): 817 nM
- Ki (5HT2c receptor): 6.74 µM
- Ki (5HT7 receptor): 468 nM
- Ki (dopamine D1 receptor): 1.35 µM
- Ki (dopamine D2 receptor [2]): 342 nM
- Ki (dopamine D3 receptor): 2.83 µM
- Ki (dopamine D4 receptor [3]): < 1000 nM and 132 nM
- Ki D5 (dopamine D5 receptor): —

SMILES: O=C(CN1CCO[C@@H](COc2cccc(Cl)c2)C1)N1CCc2ccccc21 [Compound 22r, (R)-2-(2-((3-chlorophenoxy)methyl)morpholino)-1-(indolin-1-yl)ethanone]
- Ki (5HT1a receptor): 384 nM
- Ki 5HT1d (5HT1d receptor): —
- Ki (5HT2a receptor): 2070 nM
- Ki 5HT7 (5HT7 receptor): —
- Ki D1 (dopamine D1 receptor): —
- Ki D2 (dopamine D2 receptor [2]): —
- Ki D3 (dopamine D3 receptor): —
- Ki (dopamine D4 receptor [3]): 536 nM
- Ki D5 (dopamine D5 receptor): —
- function at the dopamine D2 receptor (dopamine D2 receptor [4]): inverse agonists
- function at the dopamine D4 receptor (dopamine D4 receptor [5]): inverse agonists

SMILES: COc1cccc(OC[C@@H]2CN(CCN3CCc4ccccc43)CCO2)c1 [Compound 25s, (S)-4-(2-(Indolin-1-yl)ethyl)-2-((3-methoxyphenoxy)methyl)morpholine]
- Ki (5HT1a receptor): 174 nM
- Ki (5HT1d receptor): 1980 nM
- Ki (5HT2a receptor): 1400 nM
- Ki (5HT2c receptor): 3.76 µM
- Ki 5HT7 (5HT7 receptor): —
- Ki (dopamine D1 receptor): 8.37 µM
- Ki (dopamine D2 receptor [2]): 10000 nM
- Ki (dopamine D3 receptor): 8.29 µM
- Ki (dopamine D5 receptor): 8.53 µM

SMILES: CC1Cc2ccccc2N1C(=O)CN1CCO[C@H](COc2cccc(Cl)c2)C1 (some centres unmarked) [Compound 64]
- Ki (5HT1a receptor): 644 nM
- Ki 5HT1d (5HT1d receptor): —
- Ki (5HT2a receptor): 4540 nM
- Ki 5HT7 (5HT7 receptor): —
- Ki [1]: > 10 µM
- Ki D1 (dopamine D1 receptor): —
- Ki D2 (dopamine D2 receptor [2]): —
- Ki D3 (dopamine D3 receptor): —
- Ki (dopamine D4 receptor [3]): 2390 nM
- Ki D5 (dopamine D5 receptor): —

SMILES: Clc1cccc(OC[C@@H]2CN(CCN3CCc4ccccc43)CCO2)c1 [Compound 23s, (S)-2-((3-chlorophenoxy)methyl)-4-(2-(indolin-1-yl)ethyl)morpholine]
- Ki (5HT1d receptor): 1120 nM
- Ki (5HT2a receptor): 1280 nM
- Ki (5HT2c receptor): 3.39 µM
- Ki 5HT7 (5HT7 receptor): —
- Ki [1]: 4.18 µM
- Ki (dopamine D1 receptor): 2.04 µM
- Ki (dopamine D2 receptor [2]): 1890 nM
- Ki (dopamine D3 receptor): 6.65 µM
- Ki D5 (dopamine D5 receptor): —

SMILES: Cc1ccnc(C)c1OC[C@H]1CN(CCN2CCc3ccccc32)CCO1 [Compound 29r, (R)-2-(((2,4-Dimethylpyridin-3-yl)oxy)methyl)-4-(2-(indolin-1-yl)ethyl)morpholine]
- Ki 5HT1d (5HT1d receptor): —
- Ki (5HT2a receptor): > 10000 nM
- Ki 5HT7 (5HT7 receptor): —
- Ki D1 (dopamine D1 receptor): —
- Ki D2 (dopamine D2 receptor [2]): —
- Ki D3 (dopamine D3 receptor): —
- Ki (dopamine D4 receptor [3]): 4950 nM
- Ki D5 (dopamine D5 receptor): —

SMILES: Cc1ccnc(OC[C@H]2CN(CC(=O)N3c4ccccc4CC3C)CCO2)c1 (some centres unmarked) [Compound 70]
- Ki (5HT1a receptor): 6370 nM
- Ki 5HT1d (5HT1d receptor): —
- Ki (5HT2c receptor): 6.37 µM
- Ki 5HT7 (5HT7 receptor): —
- Ki (dopamine D1 receptor): > 10 µM
- Ki D2 (dopamine D2 receptor [2]): —
- Ki D3 (dopamine D3 receptor): —
- Ki D5 (dopamine D5 receptor): —

SMILES: Clc1cncc(OC[C@@H]2CN(CCN3CCc4ccccc43)CCO2)c1 [Compound 27s, (S)-2-(((5-Chloropyridin-3-yl)oxy)methyl)-4-(2-(indolin-1-yl)ethyl)morpholine]
- Ki 5HT1d (5HT1d receptor): —
- Ki 5HT7 (5HT7 receptor): —
- Ki (dopamine D1 receptor): 5.85 µM
- Ki (dopamine D2 receptor [2]): > 10000 nM
- Ki D3 (dopamine D3 receptor): —
- Ki D5 (dopamine D5 receptor): —
- hERG inhibition pEC50 (hERG): 5.51+/−0.13
